Laboratory results from the CheMixHub viscosity set.
± gives the uncertainty stated by the source.

Assay: xn = mol fraction of the nth substance listed

COCCOCCO + CC1COC(=O)O1
viscosity (298.15 K, 101.33 kPa, x1 = 0.0342): 2.506 ± 0.019 mPa·s
viscosity (298.15 K, 101.33 kPa, x1 = 0.0633): 2.515 ± 0.02 mPa·s
viscosity (298.15 K, 101.33 kPa, x1 = 0.0849): 2.524 ± 0.02 mPa·s
viscosity (298.15 K, 101.33 kPa, x1 = 0.1101): 2.537 ± 0.02 mPa·s
viscosity (298.15 K, 101.33 kPa, x1 = 0.1406): 2.548 ± 0.021 mPa·s
viscosity (298.15 K, 101.33 kPa, x1 = 0.1617): 2.559 ± 0.021 mPa·s
viscosity (298.15 K, 101.33 kPa, x1 = 0.1739): 2.568 ± 0.021 mPa·s
viscosity (298.15 K, 101.33 kPa, x1 = 0.2188): 2.601 ± 0.022 mPa·s
viscosity (298.15 K, 101.33 kPa, x1 = 0.2694): 2.645 ± 0.022 mPa·s
viscosity (298.15 K, 101.33 kPa, x1 = 0.3234): 2.698 ± 0.023 mPa·s
viscosity (298.15 K, 101.33 kPa, x1 = 0.3696): 2.751 ± 0.024 mPa·s
viscosity (298.15 K, 101.33 kPa, x1 = 0.3809): 2.771 ± 0.025 mPa·s
viscosity (298.15 K, 101.33 kPa, x1 = 0.4421): 2.844 ± 0.026 mPa·s
viscosity (298.15 K, 101.33 kPa, x1 = 0.4715): 2.886 ± 0.027 mPa·s
viscosity (298.15 K, 101.33 kPa, x1 = 0.5373): 2.97 ± 0.028 mPa·s
viscosity (298.15 K, 101.33 kPa, x1 = 0.5688): 3.011 ± 0.029 mPa·s
viscosity (298.15 K, 101.33 kPa, x1 = 0.6187): 3.063 ± 0.03 mPa·s
viscosity (298.15 K, 101.33 kPa, x1 = 0.6576): 3.108 ± 0.031 mPa·s
viscosity (298.15 K, 101.33 kPa, x1 = 0.7503): 3.217 ± 0.033 mPa·s
viscosity (298.15 K, 101.33 kPa, x1 = 0.7761): 3.248 ± 0.034 mPa·s
viscosity (298.15 K, 101.33 kPa, x1 = 0.7996): 3.269 ± 0.035 mPa·s
viscosity (298.15 K, 101.33 kPa, x1 = 0.8142): 3.282 ± 0.035 mPa·s
viscosity (298.15 K, 101.33 kPa, x1 = 0.8452): 3.313 ± 0.036 mPa·s
viscosity (298.15 K, 101.33 kPa, x1 = 0.9062): 3.367 ± 0.037 mPa·s
viscosity (298.15 K, 101.33 kPa, x1 = 0.9414): 3.404 ± 0.038 mPa·s
viscosity (298.15 K, 101.33 kPa, x2 = 0.0198): 3.432 ± 0.039 mPa·s

COCCOCCO + O
viscosity (293.15 K, 101.3 kPa, x1 = 0.0164): 1.374 ± 0.009 mPa·s
viscosity (293.15 K, 101.3 kPa, x1 = 0.0361): 1.895 ± 0.011 mPa·s
viscosity (293.15 K, 101.3 kPa, x1 = 0.0603): 2.602 ± 0.015 mPa·s
viscosity (293.15 K, 101.3 kPa, x1 = 0.0909): 3.571 ± 0.02 mPa·s
viscosity (293.15 K, 101.3 kPa, x1 = 0.1298): 4.594 ± 0.025 mPa·s
viscosity (293.15 K, 101.3 kPa, x1 = 0.1836): 5.705 ± 0.03 mPa·s
viscosity (293.15 K, 101.3 kPa, x1 = 0.2589): 6.431 ± 0.033 mPa·s
viscosity (293.15 K, 101.3 kPa, x1 = 0.3739): 6.442 ± 0.033 mPa·s
viscosity (293.15 K, 101.3 kPa, x1 = 0.4594): 6.083 ± 0.032 mPa·s
viscosity (293.15 K, 101.3 kPa, x1 = 0.5736): 5.544 ± 0.029 mPa·s
viscosity (293.15 K, 101.3 kPa, x1 = 0.6641): 5.108 ± 0.028 mPa·s
viscosity (293.15 K, 101.3 kPa, x1 = 0.7397): 4.791 ± 0.026 mPa·s
viscosity (293.15 K, 101.3 kPa, x1 = 0.8287): 4.441 ± 0.024 mPa·s
viscosity (293.15 K, 101.3 kPa, x1 = 0.8794): 4.286 ± 0.024 mPa·s
viscosity (293.15 K, 101.3 kPa, x1 = 0.9331): 4.149 ± 0.023 mPa·s
viscosity (303.15 K, 101.3 kPa, x1 = 0.0164): 1.061 ± 0.007 mPa·s
viscosity (303.15 K, 101.3 kPa, x1 = 0.0361): 1.421 ± 0.009 mPa·s
viscosity (303.15 K, 101.3 kPa, x1 = 0.0603): 1.916 ± 0.011 mPa·s
viscosity (303.15 K, 101.3 kPa, x1 = 0.0909): 2.525 ± 0.014 mPa·s
viscosity (303.15 K, 101.3 kPa, x1 = 0.1298): 3.232 ± 0.018 mPa·s
viscosity (303.15 K, 101.3 kPa, x1 = 0.1836): 3.941 ± 0.022 mPa·s
viscosity (303.15 K, 101.3 kPa, x1 = 0.2589): 4.445 ± 0.024 mPa·s
viscosity (303.15 K, 101.3 kPa, x1 = 0.3739): 4.514 ± 0.025 mPa·s
viscosity (303.15 K, 101.3 kPa, x1 = 0.4594): 4.337 ± 0.024 mPa·s
viscosity (303.15 K, 101.3 kPa, x1 = 0.5736): 4.024 ± 0.022 mPa·s
viscosity (303.15 K, 101.3 kPa, x1 = 0.6641): 3.753 ± 0.021 mPa·s
viscosity (303.15 K, 101.3 kPa, x1 = 0.7397): 3.554 ± 0.02 mPa·s
viscosity (303.15 K, 101.3 kPa, x1 = 0.8287): 3.341 ± 0.019 mPa·s
viscosity (303.15 K, 101.3 kPa, x1 = 0.8794): 3.239 ± 0.018 mPa·s
viscosity (303.15 K, 101.3 kPa, x1 = 0.9331): 3.143 ± 0.018 mPa·s
viscosity (308.15 K, 101.33 kPa, x1 = 0.013): 0.914 ± 0.008 mPa·s
viscosity (308.15 K, 101.33 kPa, x1 = 0.0426): 1.445 ± 0.011 mPa·s
viscosity (308.15 K, 101.33 kPa, x1 = 0.058): 1.73 ± 0.013 mPa·s
viscosity (308.15 K, 101.33 kPa, x1 = 0.0793): 2.131 ± 0.017 mPa·s
viscosity (308.15 K, 101.33 kPa, x1 = 0.0999): 2.476 ± 0.02 mPa·s
viscosity (308.15 K, 101.33 kPa, x1 = 0.1286): 2.872 ± 0.023 mPa·s
viscosity (308.15 K, 101.33 kPa, x1 = 0.1865): 3.333 ± 0.028 mPa·s
viscosity (308.15 K, 101.33 kPa, x1 = 0.3088): 3.876 ± 0.035 mPa·s
viscosity (308.15 K, 101.33 kPa, x1 = 0.4518): 3.836 ± 0.037 mPa·s
viscosity (308.15 K, 101.33 kPa, x1 = 0.5434): 3.625 ± 0.036 mPa·s
viscosity (308.15 K, 101.33 kPa, x1 = 0.6518): 3.448 ± 0.036 mPa·s
viscosity (308.15 K, 101.33 kPa, x1 = 0.7694): 3.235 ± 0.036 mPa·s
viscosity (308.15 K, 101.33 kPa, x1 = 0.9087): 2.996 ± 0.036 mPa·s
viscosity (308.15 K, 101.33 kPa, x2 = 0.0109): 2.874 ± 0.035 mPa·s
viscosity (313.15 K, 101.3 kPa, x1 = 0.0164): 0.8527 ± 0.0055 mPa·s
viscosity (313.15 K, 101.3 kPa, x1 = 0.0361): 1.108 ± 0.007 mPa·s
viscosity (313.15 K, 101.3 kPa, x1 = 0.0603): 1.445 ± 0.009 mPa·s
viscosity (313.15 K, 101.3 kPa, x1 = 0.0909): 1.858 ± 0.011 mPa·s
viscosity (313.15 K, 101.3 kPa, x1 = 0.1298): 2.367 ± 0.014 mPa·s
viscosity (313.15 K, 101.3 kPa, x1 = 0.1836): 2.848 ± 0.016 mPa·s
viscosity (313.15 K, 101.3 kPa, x1 = 0.2589): 3.193 ± 0.018 mPa·s
viscosity (313.15 K, 101.3 kPa, x1 = 0.3739): 3.269 ± 0.018 mPa·s
viscosity (313.15 K, 101.3 kPa, x1 = 0.4594): 3.174 ± 0.018 mPa·s
viscosity (313.15 K, 101.3 kPa, x1 = 0.5736): 2.994 ± 0.017 mPa·s
viscosity (313.15 K, 101.3 kPa, x1 = 0.6641): 2.849 ± 0.016 mPa·s
viscosity (313.15 K, 101.3 kPa, x1 = 0.7397): 2.724 ± 0.015 mPa·s
viscosity (313.15 K, 101.3 kPa, x1 = 0.8287): 2.594 ± 0.015 mPa·s
viscosity (313.15 K, 101.3 kPa, x1 = 0.8794): 2.511 ± 0.014 mPa·s
viscosity (313.15 K, 101.3 kPa, x1 = 0.9331): 2.455 ± 0.014 mPa·s
viscosity (323.15 K, 101.3 kPa, x1 = 0.0164): 0.6962 ± 0.0046 mPa·s
viscosity (323.15 K, 101.3 kPa, x1 = 0.0361): 0.8862 ± 0.0057 mPa·s
viscosity (323.15 K, 101.3 kPa, x1 = 0.0603): 1.131 ± 0.007 mPa·s
viscosity (323.15 K, 101.3 kPa, x1 = 0.0909): 1.441 ± 0.009 mPa·s
viscosity (323.15 K, 101.3 kPa, x1 = 0.1298): 1.782 ± 0.01 mPa·s
viscosity (323.15 K, 101.3 kPa, x1 = 0.1836): 2.114 ± 0.012 mPa·s
viscosity (323.15 K, 101.3 kPa, x1 = 0.2589): 2.366 ± 0.014 mPa·s
viscosity (323.15 K, 101.3 kPa, x1 = 0.3739): 2.451 ± 0.014 mPa·s
viscosity (323.15 K, 101.3 kPa, x1 = 0.4594): 2.412 ± 0.014 mPa·s
viscosity (323.15 K, 101.3 kPa, x1 = 0.5736): 2.296 ± 0.013 mPa·s
viscosity (323.15 K, 101.3 kPa, x1 = 0.6641): 2.204 ± 0.013 mPa·s
viscosity (323.15 K, 101.3 kPa, x1 = 0.7397): 2.122 ± 0.012 mPa·s
viscosity (323.15 K, 101.3 kPa, x1 = 0.8287): 2.031 ± 0.012 mPa·s
viscosity (323.15 K, 101.3 kPa, x1 = 0.8794): 1.987 ± 0.011 mPa·s
viscosity (323.15 K, 101.3 kPa, x1 = 0.9331): 1.955 ± 0.011 mPa·s

CC(C)[C@@H]1CC[C@@H](C)C[C@H]1O + CC(O)CCO
viscosity (298.15 K, 101.33 kPa, x1 = 0.5): 140.3 mPa·s

CCOC(=O)OCC + CS(C)=O
viscosity (308.15 K, 101 kPa, x2 = 0.0902): 0.7 ± 0.008 mPa·s
viscosity (308.15 K, 101 kPa, x2 = 0.1358): 0.719 ± 0.009 mPa·s
viscosity (308.15 K, 101 kPa, x2 = 0.2655): 0.789 ± 0.009 mPa·s
viscosity (308.15 K, 101 kPa, x2 = 0.3678): 0.836 ± 0.01 mPa·s
viscosity (308.15 K, 101 kPa, x2 = 0.468): 0.928 ± 0.011 mPa·s
viscosity (308.15 K, 101 kPa, x2 = 0.5579): 1.006 ± 0.012 mPa·s
viscosity (308.15 K, 101 kPa, x2 = 0.6013): 1.047 ± 0.012 mPa·s
viscosity (308.15 K, 101 kPa, x2 = 0.6456): 1.093 ± 0.013 mPa·s
viscosity (308.15 K, 101 kPa, x2 = 0.7167): 1.172 ± 0.014 mPa·s
viscosity (308.15 K, 101 kPa, x2 = 0.7783): 1.249 ± 0.015 mPa·s
viscosity (308.15 K, 101 kPa, x2 = 0.8439): 1.344 ± 0.016 mPa·s
viscosity (308.15 K, 101 kPa, x2 = 0.9239): 1.487 ± 0.017 mPa·s

CCC#N + COC(C)=O
viscosity (303.15 K, 101.33 kPa, x1 = 0.1119): 0.35 ± 0.0033 mPa·s
viscosity (303.15 K, 101.33 kPa, x1 = 0.2022): 0.3551 ± 0.0033 mPa·s
viscosity (303.15 K, 101.33 kPa, x1 = 0.2958): 0.3608 ± 0.0034 mPa·s
viscosity (303.15 K, 101.33 kPa, x1 = 0.4008): 0.3657 ± 0.0034 mPa·s
viscosity (303.15 K, 101.33 kPa, x1 = 0.4952): 0.3692 ± 0.0034 mPa·s
viscosity (303.15 K, 101.33 kPa, x1 = 0.5946): 0.3732 ± 0.0034 mPa·s
viscosity (303.15 K, 101.33 kPa, x1 = 0.6967): 0.3773 ± 0.0034 mPa·s
viscosity (303.15 K, 101.33 kPa, x1 = 0.7985): 0.3811 ± 0.0034 mPa·s
viscosity (303.15 K, 101.33 kPa, x1 = 0.9022): 0.3857 ± 0.0035 mPa·s

CC(C)[C@@H]1CC[C@@H](C)C[C@H]1O + CCCCCCCO
viscosity (298.15 K, 101.33 kPa, x1 = 0.5): 27.53 mPa·s
